In ChEMBL document CHEMBL5465560, “Selectivity Literature for EUbOPEN Chemogenomic Library” (2024) one finds % of control data, which are given here for five compounds.

Experiment [1] addresses T1, Serine/threonine-protein kinase MAK (Homo sapiens) (UniProt P20794).
T1 sequence (whole entry): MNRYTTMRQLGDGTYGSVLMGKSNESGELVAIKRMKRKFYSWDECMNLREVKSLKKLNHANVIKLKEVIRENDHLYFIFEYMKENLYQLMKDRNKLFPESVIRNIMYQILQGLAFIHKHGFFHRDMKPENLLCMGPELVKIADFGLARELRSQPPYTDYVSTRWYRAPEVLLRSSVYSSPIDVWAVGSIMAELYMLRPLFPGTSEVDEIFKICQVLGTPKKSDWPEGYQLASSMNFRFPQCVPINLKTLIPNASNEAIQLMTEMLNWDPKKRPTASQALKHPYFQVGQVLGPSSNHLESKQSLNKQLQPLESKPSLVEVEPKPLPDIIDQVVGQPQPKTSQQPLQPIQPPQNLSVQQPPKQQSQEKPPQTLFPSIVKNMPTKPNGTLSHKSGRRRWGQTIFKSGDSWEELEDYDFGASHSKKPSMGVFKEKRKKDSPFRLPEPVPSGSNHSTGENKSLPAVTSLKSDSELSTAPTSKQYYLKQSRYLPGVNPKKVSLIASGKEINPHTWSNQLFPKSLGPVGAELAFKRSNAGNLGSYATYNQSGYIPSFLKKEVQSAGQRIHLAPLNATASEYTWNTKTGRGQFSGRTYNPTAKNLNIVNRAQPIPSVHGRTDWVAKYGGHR
Description: Selectivity interaction (KinomeScan (DiscoverX)) EUB0001619a MAK. As to conditions: at 1 µM.

The target of experiment [2] is Serine/threonine-protein kinase B-raf (Homo sapiens) (UniProt P15056). As to conditions: at 10 µM.
Serine/threonine-protein kinase B-raf (Homo sapiens), sequence (P15056 whole entry): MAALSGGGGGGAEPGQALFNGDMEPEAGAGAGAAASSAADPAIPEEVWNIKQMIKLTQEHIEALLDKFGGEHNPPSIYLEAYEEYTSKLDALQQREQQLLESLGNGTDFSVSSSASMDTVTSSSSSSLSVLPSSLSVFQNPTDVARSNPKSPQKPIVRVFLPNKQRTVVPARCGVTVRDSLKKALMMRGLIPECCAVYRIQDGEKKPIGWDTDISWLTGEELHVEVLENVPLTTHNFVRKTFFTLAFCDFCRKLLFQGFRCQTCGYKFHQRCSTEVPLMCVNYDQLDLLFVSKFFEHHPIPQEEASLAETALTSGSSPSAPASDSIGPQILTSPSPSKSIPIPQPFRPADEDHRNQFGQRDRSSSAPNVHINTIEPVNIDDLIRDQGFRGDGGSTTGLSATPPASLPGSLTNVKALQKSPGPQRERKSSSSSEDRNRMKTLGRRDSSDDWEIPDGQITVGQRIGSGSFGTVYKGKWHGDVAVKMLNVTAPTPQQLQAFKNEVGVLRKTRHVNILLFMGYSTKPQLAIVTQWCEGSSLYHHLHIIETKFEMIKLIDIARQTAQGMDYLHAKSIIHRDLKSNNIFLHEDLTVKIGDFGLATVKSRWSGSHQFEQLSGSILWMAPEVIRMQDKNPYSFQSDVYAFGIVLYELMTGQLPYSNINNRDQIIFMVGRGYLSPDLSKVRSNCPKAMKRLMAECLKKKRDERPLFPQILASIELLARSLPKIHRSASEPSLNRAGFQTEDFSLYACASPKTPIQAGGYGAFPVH
For experiment [3], the target named is T2, Serine/threonine-protein kinase 36 (Homo sapiens) (UniProt Q9NRP7).
T2 sequence (whole entry): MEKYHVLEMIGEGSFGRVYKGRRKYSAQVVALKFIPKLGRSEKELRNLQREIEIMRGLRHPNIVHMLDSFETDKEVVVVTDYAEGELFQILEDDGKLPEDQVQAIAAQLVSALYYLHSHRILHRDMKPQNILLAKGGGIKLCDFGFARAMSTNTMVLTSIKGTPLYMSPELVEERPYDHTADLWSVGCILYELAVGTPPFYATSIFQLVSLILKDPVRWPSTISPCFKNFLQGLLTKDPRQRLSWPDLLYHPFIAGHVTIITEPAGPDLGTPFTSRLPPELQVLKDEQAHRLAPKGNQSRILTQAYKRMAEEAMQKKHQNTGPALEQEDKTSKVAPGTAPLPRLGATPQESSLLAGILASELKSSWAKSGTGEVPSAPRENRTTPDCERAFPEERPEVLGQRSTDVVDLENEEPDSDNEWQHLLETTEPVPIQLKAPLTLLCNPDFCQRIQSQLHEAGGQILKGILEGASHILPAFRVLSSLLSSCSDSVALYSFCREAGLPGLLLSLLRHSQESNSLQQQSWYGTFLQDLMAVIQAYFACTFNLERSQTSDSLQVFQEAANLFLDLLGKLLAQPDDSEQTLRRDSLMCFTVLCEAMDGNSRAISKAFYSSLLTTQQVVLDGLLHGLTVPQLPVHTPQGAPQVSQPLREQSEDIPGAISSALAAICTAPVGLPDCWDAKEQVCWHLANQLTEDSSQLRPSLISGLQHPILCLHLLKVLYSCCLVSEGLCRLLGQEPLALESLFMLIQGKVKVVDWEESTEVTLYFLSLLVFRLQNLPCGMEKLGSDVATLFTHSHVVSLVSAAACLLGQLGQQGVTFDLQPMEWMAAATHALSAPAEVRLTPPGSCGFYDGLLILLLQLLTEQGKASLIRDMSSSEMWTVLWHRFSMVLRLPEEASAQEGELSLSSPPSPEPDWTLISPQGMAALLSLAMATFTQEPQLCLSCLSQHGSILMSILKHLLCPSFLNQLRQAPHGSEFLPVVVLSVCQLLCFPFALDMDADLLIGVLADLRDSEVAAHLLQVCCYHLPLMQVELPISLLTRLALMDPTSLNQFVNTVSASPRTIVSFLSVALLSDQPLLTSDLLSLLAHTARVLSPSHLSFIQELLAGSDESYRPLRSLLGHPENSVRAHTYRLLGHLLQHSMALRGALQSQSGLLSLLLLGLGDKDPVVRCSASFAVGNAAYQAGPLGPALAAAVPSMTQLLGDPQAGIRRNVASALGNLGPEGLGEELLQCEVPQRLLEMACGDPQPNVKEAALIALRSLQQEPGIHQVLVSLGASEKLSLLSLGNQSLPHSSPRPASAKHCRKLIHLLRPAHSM
Description: Selectivity interaction (KinomeScan (DiscoverX)) EUB0001049a STK36. Conditions: at 1 µM.

For experiment [4], the target named is MAP kinase-interacting serine/threonine-protein kinase 1 (Homo sapiens) (UniProt Q9BUB5). Description: Selectivity interaction (KinomeScan (DiscoverX)) EUB0000092b MKNK1. As to conditions: at 10 µM.
MAP kinase-interacting serine/threonine-protein kinase 1 (Homo sapiens), sequence (Q9BUB5 whole entry, looked up): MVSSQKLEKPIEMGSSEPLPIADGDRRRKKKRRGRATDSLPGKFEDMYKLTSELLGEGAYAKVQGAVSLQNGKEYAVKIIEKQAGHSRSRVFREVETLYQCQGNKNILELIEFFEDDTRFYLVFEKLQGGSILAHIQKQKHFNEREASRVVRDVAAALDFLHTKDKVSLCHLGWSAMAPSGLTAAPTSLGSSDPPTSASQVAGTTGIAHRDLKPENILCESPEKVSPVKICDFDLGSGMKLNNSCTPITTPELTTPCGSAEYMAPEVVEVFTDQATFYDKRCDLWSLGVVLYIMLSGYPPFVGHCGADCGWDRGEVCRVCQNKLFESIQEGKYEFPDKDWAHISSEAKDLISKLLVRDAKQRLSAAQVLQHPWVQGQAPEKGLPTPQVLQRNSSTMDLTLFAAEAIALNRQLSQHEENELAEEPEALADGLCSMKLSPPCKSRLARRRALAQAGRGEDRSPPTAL
For experiment [5], the target named is Calcium/calmodulin-dependent protein kinase type II subunit alpha (Homo sapiens, UniProt Q9UQM7). The experiment can be described thus: Selectivity interaction (KinomeScan (DiscoverX)) EUB0000595a CAMK2A. As to conditions: at 10 µM.
Calcium/calmodulin-dependent protein kinase type II subunit alpha, sequence (Q9UQM7 whole entry): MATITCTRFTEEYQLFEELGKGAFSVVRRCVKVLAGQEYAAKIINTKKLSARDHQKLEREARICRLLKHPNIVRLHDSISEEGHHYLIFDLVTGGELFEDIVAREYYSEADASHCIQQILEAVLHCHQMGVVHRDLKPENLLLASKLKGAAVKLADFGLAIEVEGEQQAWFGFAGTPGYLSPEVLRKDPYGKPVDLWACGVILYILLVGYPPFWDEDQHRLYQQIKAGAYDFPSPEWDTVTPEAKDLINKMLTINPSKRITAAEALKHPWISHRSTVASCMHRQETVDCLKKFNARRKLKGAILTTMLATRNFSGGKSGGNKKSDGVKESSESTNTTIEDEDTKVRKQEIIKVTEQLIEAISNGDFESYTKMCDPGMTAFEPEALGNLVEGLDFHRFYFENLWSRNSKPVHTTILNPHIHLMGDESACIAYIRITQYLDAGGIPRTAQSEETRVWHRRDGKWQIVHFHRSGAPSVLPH

In experiment [1], `N#Cc1cccc(-c2c[nH]c3ncnc(N4CCOCC4)c23)c1` came in with a % of control of 94%. In turn, `CCN(CC)CCCCNc1ncc2cc(-c3cc(OC)cc(OC)c3)c(NC(=O)NC(C)(C)C)nc2n1` gave a % of control in experiment [2] of 100%. In experiment [3], `COc1cc(Nc2nc(C)cc(-c3cnn4nc(OC)ccc34)n2)cc(C(F)(F)F)c1` registered a % of control of 99%. In experiment [4], `CCC(=O)N1CCN(c2ccc(-n3c(=O)ccc4cnc5ccc(-c6cnc7ccccc7c6)cc5c43)cc2C(F)(F)F)CC1` had a % of control of 44%. Turning to `COCC(=O)NC/C=C/c1ccc2ncnc(Nc3ccc(Oc4ccc(C)nc4)c(C)c3)c2c1` [CP-724714], in experiment [5], the % of control was found to be 93%.
